Reference: patent publication US9468661B2, “Pyrrolidine derivatives and their use as complement pathway modulators” (priority 2012, dated 2016)

biological target: human factor D (Homo sapiens (Human), UniProt P00746); test: biochemical; format: biochemical; details: Factor D inhibition data using Method 1; recombinant human factor D 10 nM, substrate Z-Lys-thiobenzyl, fluorescence; read-out: IC50
Procedure, shortened: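 E. coli-expressed recombinant human factor D (10 nM) was preincubated with compound for 1 h at room temperature in 0.1 M Hepes pH 7.5, 1 mM MgCl2, 1 M NaCl, 0.05% CHAPS. Fluorescence (ex 485/em 535 nm) was read after adding Z-Lys-thiobenzyl (200 μM) and 2,4-dinitrobenzenesulfonyl-fluoresceine (25 μM); IC50 came from percent inhibition versus concentration.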

human factor D, sequence (P00746 26-253): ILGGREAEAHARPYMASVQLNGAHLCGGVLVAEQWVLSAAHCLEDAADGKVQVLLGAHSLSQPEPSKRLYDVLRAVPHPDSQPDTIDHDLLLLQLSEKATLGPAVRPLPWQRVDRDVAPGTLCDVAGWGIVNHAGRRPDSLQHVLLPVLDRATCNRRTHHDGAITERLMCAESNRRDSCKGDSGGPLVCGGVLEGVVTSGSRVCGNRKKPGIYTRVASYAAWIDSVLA

Structure (SMILES)	IC50 [µM]
CC(=O)c1nn(CC(=O)N2[C@@H]3C[C@@H]3C[C@H]2C(=O)NCC2CC(C)C2)c2ccc(OCc3ncccn3)cc12 (mixture of isomers) [Example 65, (1R,3S,5R)-2-{2-[3-Acetyl-5-(pyrimidin-2-ylmethoxy)-indazol-1-yl]-acetyl}-2-aza-bicyclo[3.1.0] hexane-3-carboxylic acid (3-methyl-cyclobutylmethyl)-amide (mixture of 4 diastereoisomers)]	0.02
C[C@@H](NC(=O)[C@@H]1C[C@H]2C[C@H]2N1C(=O)Cn1nc(C(N)=O)c2ccncc21)[C@H]1CC1(Cl)Cl [Example 37, 1-(2-{(1R,3S,5R)-3-[(R)-1-((R)-2,2-Dichloro-cyclopropyl)-ethylcarbamoyl]-2-aza-bicyclo[3.1.0]hex-2-yl}-2-oxo-ethyl)-1H-pyrazolo[3,4-c]pyridine-3-carboxylic acid amide]	0.011
CC1CCCC(CNC(=O)[C@@H]2C[C@H]3C[C@H]3N2C(=O)Cn2nc(C(N)=O)c3ccncc32)C1 (single isomer, unassigned; dia 3) [Example 117]	0.307
CC(=O)c1nn(CC(=O)N2[C@@H]3C[C@@H]3C[C@H]2C(=O)NC[C@H]2CC2(Cl)Cl)c2ccc(OCc3cscn3)cc12 [Example 105, (1R,3S,5R)-2-{2-[3-Acetyl-5-(thiazol-4-ylmethoxy)-indazol-1-yl]-acetyl}-2-aza-bicyclo[3.1.0]hexane-3-carboxylic acid ((R)-2,2-dichloro-cyclopropylmethyl)-amide]	0.014
CC1CCCC1CNC(=O)[C@@H]1C[C@H]2C[C@H]2N1C(=O)Cn1nc(C(N)=O)c2ccncc21 (single isomer, unassigned; dia 1) [Example 85]	1.41
CC1CCCC(CNC(=O)[C@@H]2C[C@H]3C[C@H]3N2C(=O)Nc2cn(C(N)=O)c3ccccc23)C1 (stereo partly drawn) [Example 29, (1R,3S,5R)-2-Aza-bicyclo [3.1.0]hexane-2,3-dicarboxylic acid 2-[(1-carbamoyl-1H-indol-3-yl)-amide] 3-[(3-methyl-cyclohexylmethyl)-amide]]	0.046
NC(=O)c1nn(CC(=O)N2[C@@H]3C[C@@H]3C[C@H]2C(=O)NC[C@H]2CC2(Cl)Cl)c2ccc(OCc3nccs3)cc12 [Example 40, 1-(2-{(1R,3S,5R)-3-[((R)-2,2-Dichloro-cyclopropylmethyl)-carbamoyl]-2-aza-bicyclo[3.1.0]hex-2-yl}-2-oxo-ethyl)-5-(thiazol-2-ylmethoxy)-1H-indazole-3-carboxylic acid amide]	0.007
NC(=O)c1nn(CC(=O)N2[C@@H]3C[C@@H]3C[C@H]2C(=O)NC[C@@H]2CC2(Cl)Cl)c2cnccc12 [Example 71, 1-(2-{(1R,3S,5R)-3-[((S)-2,2-Dichloro-cyclopropylmethyl)-carbamoyl]-2-aza-bicyclo[3.1.0]hex-2-yl}-2-oxo-ethyl)-1H-pyrazolo[3,4-c]pyridine-3-carboxylic acid amide]	0.136
CC1CCCC1CNC(=O)[C@@H]1C[C@H]2C[C@H]2N1C(=O)Cn1nc(C(N)=O)c2ccncc21 (single isomer, unassigned; dia 3) [Example 87]	0.459
NC(=O)n1cc(NC(=O)N2[C@@H]3C[C@@H]3C[C@H]2C(=O)NCC2CCCCC2)c2ccccc21 [Example 25, (1R,3S,5R)-2-Aza-bicyclo[3.1.0]hexane-2,3-dicarboxylic acid 2-[(1-carbamoyl-1H-indol-3-yl)-amide]3-cyclohexylmethyl-amide]	0.257
NC(=O)c1nn(CC(=O)N2[C@@H]3C[C@@H]3C[C@H]2C(=O)NC[C@@H]2CC2(Cl)Cl)c2ccccc12 [Example 70, 1-(2-{(1R,3S,5R)-3-[((S)-2,2-Dichloro-cyclopropylmethyl)-carbamoyl]-2-aza-bicyclo[3.1.0]hex-2-yl}-2-oxo-ethyl)-1H-indazole-3-carboxylic acid amide]	0.09
CC(=O)c1nn(CC(=O)N2[C@@H]3C[C@@H]3C[C@H]2C(=O)NC[C@H]2CC2(Cl)Cl)c2ncccc12 [Example 69, (1R,3S,5R)-2-[2-(3-Acetyl-pyrazolo[3,4-b]pyridin-1-yl)-acetyl]-2-aza-bicyclo[3.1.0] hexane-3-carboxylic acid ((R)-2,2-dichloro-cyclopropylmethyl)-amide]	0.053
CC(=O)c1nn(CC(=O)N2[C@@H]3C[C@@H]3C[C@H]2C(=O)NCC2CCCC(C)(C)C2)c2cnccc12 (single isomer, unassigned; dia 2) [Example 18]	0.389
CC1CCCC1CNC(=O)[C@@H]1C[C@H]2C[C@H]2N1C(=O)Cn1nc(C(N)=O)c2ccncc21 (single isomer, unassigned; dia 2) [Example 86]	0.61
CC(=O)c1nn(CC(=O)N2[C@@H]3C[C@@H]3C[C@H]2C(=O)NCC2CCCC2(C)C)c2cnccc12 (single isomer, unassigned; dia 1) [Example 19]	1.61
C[C@@H](NC(=O)[C@@H]1C[C@@H](F)CN1C(=O)Cn1nc(C(N)=O)c2ccccc21)[C@H]1CC1(Cl)Cl [Example 58, 1-(2-{(2S,4R)-2-[(R)-1-((R)-2,2-Dichloro-cyclopropyl)-ethylcarbamoyl]-4-fluoro-pyrrolidin-1-yl}-2-oxo-ethyl)-1H-indazole-3-carboxylic acid amide]	0.039
CC(=O)c1nn(CC(=O)N2[C@@H]3C[C@@H]3C[C@H]2C(=O)NC[C@H]2CC2(Cl)Cl)c2ccc(OCc3nccc(C)n3)cc12 [Example 56, (1R,3S,5R)-2-{2-[3-Acetyl-5-(4-methyl-pyrimidin-2-ylmethoxy)-indazol-1-yl]-acetyl}-2-aza-bicyclo[3.1.0]hexane-3-carboxylic acid ((R)-2,2-dichloro-cyclopropylmethyl)-amide]	0.008
NC(=O)c1nn(CC(=O)N2[C@@H]3C[C@@H]3C[C@H]2C(=O)NC[C@H]2CC2(Cl)Cl)c2cc(Cl)ccc12 [Example 114, 6-Chloro-1-(2-{(1R,3S,5R)-3-[((R)-2,2-dichloro-cyclopropylmethyl)-carbamoyl]-2-aza-bicyclo[3.1.0]hex-2-yl}-2-oxo-ethyl)-1H-indazole-3-carboxylic acid amide]	0.04
CC(=O)c1nn(CC(=O)N2[C@@H]3C[C@@H]3C[C@H]2C(=O)NC2(C3CCCCC3)CC2)c2cnccc12 [Example 15, (1R,3S,5R)-2-[2-(3-Acetyl-pyrazolo[3,4-c]pyridin-1-yl)-acetyl]-2-aza-bicyclo[3.1.0] hexane-3-carboxylic acid (1-cyclohexyl-cyclopropyl)-amide]	0.358
CC(=O)c1nn(CC(=O)N2[C@@H]3C[C@@H]3C[C@H]2C(=O)NC[C@H]2C(C)(C)C2(Cl)Cl)c2ccc(OCc3ncccn3)cc12 [Example 104, (1R,3S,5R)-2-{2-[3-Acetyl-5-(pyrimidin-2-ylmethoxy)-indazol-1-yl]-acetyl}-2-aza-bicyclo[3.1.0] hexane-3-carboxylic acid ((R)-2,2-dichloro-3,3-dimethyl-cyclopropylmethyl)-amide]	0.016
C[C@@]1(F)C[C@@H](C(=O)NC[C@H]2CC2(Cl)Cl)N(C(=O)Cn2nc(C(N)=O)c3ccccc32)C1 [Example 60, 1-(2-{(2S,4R)-2-[((R)-2,2-Dichloro-cyclopropylmethyl)-carbamoyl]-4-fluoro-4-methyl-pyrrolidin-1-yl}-2-oxo-ethyl)-1H-indazole-3-carboxylic acid amide]	0.124
NC(=O)c1nn(CC(=O)N2[C@@H]3C[C@@H]3C[C@H]2C(=O)N[C@H](CO)C23CC(C(F)(F)F)(C2)C3)c2ccccc12 [Example 123, 1-(2-{(1R,3S,5R)-3-[(S)-2-Hydroxy-1-(3-trifluoromethyl-bicyclo[1.1.1]pent-1-yl)-ethylcarbamoyl]-2-aza-bicyclo[3.1.0]hex-2-yl}-2-oxo-ethyl)-1H-indazole-3-carboxylic acid amide]	1.24
CC1(C)[C@H](CNC(=O)[C@@H]2C[C@H]3C[C@H]3N2C(=O)Nc2cn(C(N)=O)c3ccccc23)C1(Cl)Cl [Example 27, (1R,3S,5R)-2-Aza-bicyclo[3.1.0]hexane-2,3-dicarboxylic acid 2-[(1-carbamoyl-1H-indol-3-yl)-amide] 3-[((R)-2,2-dichloro-3,3-dimethyl-cyclopropylmethyl)-amide]]	0.019
Cc1cc2c(C(N)=O)nn(CC(=O)N3[C@@H]4C[C@@H]4C[C@H]3C(=O)N[C@H](C)[C@H]3CC3(Cl)Cl)c2c(C)n1 [Example 45, 1-(2-{(1R,3S,5R)-3-[(R)-1-((R)-2,2-Dichloro-cyclopropyl)-ethylcarbamoyl]-2-aza-bicycio[3.1.0]hex-2-yl}-2-oxo-ethyl)-5,7-dimethyl-1H-pyrazolo[3,4-c]pyridine-3-carboxylic acid amide]	0.043
CC(=O)c1nn(CC(=O)N2[C@@H]3C[C@@H]3C[C@H]2C(=O)NCC2CCC3(CCC3)CC2)c2cnccc12 [Example 3, (1R,3S,5R)-2-[2-(3-Acetyl-pyrazolo[3,4-c]pyridin-1-yl)-acetyl]-2-aza-bicyclo[3.1.0] hexane-3-carboxylic acid (spiro[3.5]non-7-ylmethyl)-amide]	1.35

same assay, conditions: IC50, Factor D inhibition data using Method 1; recombinant human factor D 10 nM, substrate Z-Lys-thiobenzyl, fluorescence

Structure (SMILES)	IC50 [µM]
NC(=O)c1nn(CC(=O)N2[C@@H]3C[C@@H]3C[C@H]2C(=O)NC(CO)C2CC2(Cl)Cl)c2ccccc12 (single isomer, unassigned; dia 2) [Example 24]	0.755
CC1C(CNC(=O)[C@@H]2C[C@H]3C[C@H]3N2C(=O)Cn2nc(C(N)=O)c3ccncc32)C1(Cl)Cl (single isomer, unassigned; dia 1) [Example 79, 1-(2-{(1R,3S,5R)-3-[((1R,3S) or (1S,3R)-2,2-Dichloro-3-methyl-cyclopropylmethyl)-carbamoyl]-2-aza-bicyclo[3.1.0]hex-2-yl}-2-oxo-ethyl)-1H-pyrazolo[3,4-c]pyridine-3-carboxylic acid amide-Dia 1]	0.229
